From ChEMBL document CHEMBL1932988, “Synthesis, antimicrobial, anticancer evaluation and QSAR studies of 6-methyl-4-[1-(2-substituted-phenylamino-acetyl)-1H-indol-3-yl]-2-oxo/thioxo-1,2,3,4-tetrahydropyrimidine-5-carboxylic acid ethyl esters” (Eur J Med Chem, 2012) come the findings set out here.

By IC50 is commonly meant the midpoint of a concentration-inhibition curve. As a reminder, the logP is a log measure of how a compound divides between an organic and an aqueous phase. Read a low logP as a more hydrophilic compound.

The structures appear in SMILES notation. ≈ marks a conversion by molar mass, not a printed value.

The subject of one data set is Candida albicans. The data set can be described thus: Antifungal activity against Candida albicans MTCC 227 after 48 hrs by tube dilution method. In kind it is functional.
Conditions: not given
For the compound `CCOC(=O)C1=C(C)NC(=O)NC1c1cn(C(=O)CNc2ccc([N+](=O)[O-])cc2Cl)c2ccccc12` (stereo unspecified), the “-logMIC” value is given as 1.61.

Take `CCOC(=O)C1=C(C)NC(=O)NC1c1cn(C(=O)CNc2cccc([N+](=O)[O-])c2)c2ccccc12` (stereo unspecified): the “-logMIC” value is reported as 1.58.

As for `CCOC(=O)C1=C(C)NC(=O)NC1c1cn(C(=O)CNc2ccc([N+](=O)[O-])cc2)c2ccccc12` (stereo unspecified), the “-logMIC” value was found to be 1.58.

The subject of a further data set is Escherichia coli. The data set can be described thus: Antibacterial activity against Escherichia coli MTCC 1652 after 24 hrs by tube dilution method hrs followed by subculturing. In kind it is functional.
Conditions: not given
`CCOC(=O)C1=C(C)NC(=O)NC1c1cn(C(=O)CNc2ccc([N+](=O)[O-])cc2Cl)c2ccccc12` (stereo unspecified) registered an MBC above 0.1 uM/ml.

Compound `CCOC(=O)C1=C(C)NC(=O)NC1c1cn(C(=O)CNc2cccc([N+](=O)[O-])c2)c2ccccc12` (stereo unspecified) came in with an MBC of 0.1 uM/ml.

The compound `CCOC(=O)C1=C(C)NC(=O)NC1c1cn(C(=O)CNc2ccc([N+](=O)[O-])cc2)c2ccccc12` (stereo unspecified) registered an MBC of 0.1 uM/ml.

For a further data set, the system named is MCF7. Kind of data set: cells. To be noted: Homo sapiens, MCF7, 72 h.
Description: Cytotoxicity against human MCF7 cells after 72 hrs by MTT assay
The compound `CCOC(=O)C1=C(C)NC(=O)NC1c1cn(C(=O)CNc2ccc([N+](=O)[O-])cc2Cl)c2ccccc12` (stereo unspecified) came in with an IC50 of 50 µg/mL (≈ 97.7 µM).

In turn, `CCOC(=O)C1=C(C)NC(=O)NC1c1cn(C(=O)CNc2ccc([N+](=O)[O-])cc2)c2ccccc12` (stereo unspecified) came in with an IC50 above 1000 µg/mL.

In a further data set the test system is Candida albicans. The data set can be described thus: Ratio of MIC to MFC for Candida albicans MTCC 227. In kind it is functional.
Conditions: not given
Consider `CCOC(=O)C1=C(C)NC(=O)NC1c1cn(C(=O)CNc2ccc([N+](=O)[O-])cc2Cl)c2ccccc12` (stereo unspecified), for which the Ratio came to 3.

Turning to `CCOC(=O)C1=C(C)NC(=O)NC1c1cn(C(=O)CNc2cccc([N+](=O)[O-])c2)c2ccccc12` (stereo unspecified), the Ratio is 3.

With `CCOC(=O)C1=C(C)NC(=O)NC1c1cn(C(=O)CNc2ccc([N+](=O)[O-])cc2)c2ccccc12` (stereo unspecified), the Ratio is 3.

Another data set concerns Bacillus subtilis. The data set can be described thus: Ratio of MIC to MBC for Bacillus subtilis MTCC 2063. In kind it is functional.
Conditions: not given
`CCOC(=O)C1=C(C)NC(=O)NC1c1cn(C(=O)CNc2ccc([N+](=O)[O-])cc2Cl)c2ccccc12` (stereo unspecified): the Ratio worked out at 3.

Take `CCOC(=O)C1=C(C)NC(=O)NC1c1cn(C(=O)CNc2cccc([N+](=O)[O-])c2)c2ccccc12` (stereo unspecified): the Ratio was found to be 3.

As for `CCOC(=O)C1=C(C)NC(=O)NC1c1cn(C(=O)CNc2ccc([N+](=O)[O-])cc2)c2ccccc12` (stereo unspecified), the Ratio was determined as 3.

The next data set concerns Bacillus subtilis. Kind of data set: Antibacterial activity against Bacillus subtilis MTCC 2063 after 24 hrs by tube dilution method hrs followed by subculturing. In kind it is functional.
Conditions: not given
As for `CCOC(=O)C1=C(C)NC(=O)NC1c1cn(C(=O)CNc2ccc([N+](=O)[O-])cc2Cl)c2ccccc12` (stereo unspecified), the MBC is given as above 0.1 uM/ml.

For the compound `CCOC(=O)C1=C(C)NC(=O)NC1c1cn(C(=O)CNc2cccc([N+](=O)[O-])c2)c2ccccc12` (stereo unspecified), the MBC is listed as above 0.1 uM/ml.

As to `CCOC(=O)C1=C(C)NC(=O)NC1c1cn(C(=O)CNc2ccc([N+](=O)[O-])cc2)c2ccccc12` (stereo unspecified), the MBC was above 0.1 uM/ml.

Another data set deals with Escherichia coli. Kind of data set: Ratio of MIC to MBC for Escherichia coli MTCC 1652. In kind it is functional.
Conditions: not given
Regarding `CCOC(=O)C1=C(C)NC(=O)NC1c1cn(C(=O)CNc2ccc([N+](=O)[O-])cc2Cl)c2ccccc12` (stereo unspecified), the Ratio was found to be 3.

For `CCOC(=O)C1=C(C)NC(=O)NC1c1cn(C(=O)CNc2cccc([N+](=O)[O-])c2)c2ccccc12` (stereo unspecified), the Ratio is 3.

As for `CCOC(=O)C1=C(C)NC(=O)NC1c1cn(C(=O)CNc2ccc([N+](=O)[O-])cc2)c2ccccc12` (stereo unspecified), the Ratio is on record as 3.

Another data set deals with Aspergillus niger. The data set can be described thus: Ratio of MIC to MFC for Aspergillus niger MTCC 8189.
Conditions: not given
In kind it is functional.
In the case of `CCOC(=O)C1=C(C)NC(=O)NC1c1cn(C(=O)CNc2ccc([N+](=O)[O-])cc2Cl)c2ccccc12` (stereo unspecified), the Ratio amounted to 3.

In the case of `CCOC(=O)C1=C(C)NC(=O)NC1c1cn(C(=O)CNc2cccc([N+](=O)[O-])c2)c2ccccc12` (stereo unspecified), the Ratio turned out to be 3.

As for `CCOC(=O)C1=C(C)NC(=O)NC1c1cn(C(=O)CNc2ccc([N+](=O)[O-])cc2)c2ccccc12` (stereo unspecified), the Ratio was 3.

Another data set concerns Aspergillus niger. The data set can be described thus: Antifungal activity against Aspergillus niger MTCC 8189 after 7 days by tube dilution method. In kind it is functional.
Conditions: not given
Take `CCOC(=O)C1=C(C)NC(=O)NC1c1cn(C(=O)CNc2ccc([N+](=O)[O-])cc2Cl)c2ccccc12` (stereo unspecified): the “-logMIC” value is 1.61.

`CCOC(=O)C1=C(C)NC(=O)NC1c1cn(C(=O)CNc2cccc([N+](=O)[O-])c2)c2ccccc12` (stereo unspecified): the “-logMIC” value turned out to be 1.58.

As to `CCOC(=O)C1=C(C)NC(=O)NC1c1cn(C(=O)CNc2ccc([N+](=O)[O-])cc2)c2ccccc12` (stereo unspecified), the “-logMIC” value worked out at 1.58.

A further data set deals with Staphylococcus aureus. Kind of data set: Antibacterial activity against Staphylococcus aureus MTCC 2901 after 24 hrs followed by subculturing. In kind it is functional.
Conditions: not given
For `CCOC(=O)C1=C(C)NC(=O)NC1c1cn(C(=O)CNc2ccc([N+](=O)[O-])cc2Cl)c2ccccc12` (stereo unspecified), the MBC is above 0.1 uM/ml.

With `CCOC(=O)C1=C(C)NC(=O)NC1c1cn(C(=O)CNc2cccc([N+](=O)[O-])c2)c2ccccc12` (stereo unspecified), the MBC is on record as 0.1 uM/ml.

Regarding `CCOC(=O)C1=C(C)NC(=O)NC1c1cn(C(=O)CNc2ccc([N+](=O)[O-])cc2)c2ccccc12` (stereo unspecified), the MBC is recorded as 0.1 uM/ml.

For a further data set, the system named is Escherichia coli. The data set can be described thus: Antibacterial activity against Escherichia coli MTCC 1652 after 24 hrs by tube dilution method. In kind it is functional.
Conditions: not given
As to `CCOC(=O)C1=C(C)NC(=O)NC1c1cn(C(=O)CNc2ccc([N+](=O)[O-])cc2Cl)c2ccccc12` (stereo unspecified), the “-logMIC” value is 1.61.

Consider `CCOC(=O)C1=C(C)NC(=O)NC1c1cn(C(=O)CNc2cccc([N+](=O)[O-])c2)c2ccccc12` (stereo unspecified), for which the “-logMIC” value was 1.88.

In the case of `CCOC(=O)C1=C(C)NC(=O)NC1c1cn(C(=O)CNc2ccc([N+](=O)[O-])cc2)c2ccccc12` (stereo unspecified), the “-logMIC” value was found to be 1.88.

For the next data set, the system named is Staphylococcus aureus. The data set can be described thus: Ratio of MIC to MBC for Staphylococcus aureus MTCC 2901. In kind it is functional.
Conditions: not given
With `CCOC(=O)C1=C(C)NC(=O)NC1c1cn(C(=O)CNc2ccc([N+](=O)[O-])cc2Cl)c2ccccc12` (stereo unspecified), the Ratio is 3.

As for `CCOC(=O)C1=C(C)NC(=O)NC1c1cn(C(=O)CNc2cccc([N+](=O)[O-])c2)c2ccccc12` (stereo unspecified), the Ratio is 3.

As for `CCOC(=O)C1=C(C)NC(=O)NC1c1cn(C(=O)CNc2ccc([N+](=O)[O-])cc2)c2ccccc12` (stereo unspecified), the Ratio is 3.

Tested on in the next data set: not listed separately
Kind of data set: Partition coefficient, log P of the compound. In kind it is physicochemical. The conditions noted are these: octanol/water.
Compound `CCOC(=O)C1=C(C)NC(=O)NC1c1cn(C(=O)CNc2ccc([N+](=O)[O-])cc2Cl)c2ccccc12` (stereo unspecified) showed a logP of 1.99.

Consider `CCOC(=O)C1=C(C)NC(=O)NC1c1cn(C(=O)CNc2cccc([N+](=O)[O-])c2)c2ccccc12` (stereo unspecified), for which the logP came to 1.48.

As to `CCOC(=O)C1=C(C)NC(=O)NC1c1cn(C(=O)CNc2ccc([N+](=O)[O-])cc2)c2ccccc12` (stereo unspecified), the logP came to 1.48.

Another data set concerns HCT-116. The data set can be described thus: cells. To be noted: Homo sapiens, HCT-116, 72 h.
Compound `CCOC(=O)C1=C(C)NC(=O)NC1c1cn(C(=O)CNc2ccc([N+](=O)[O-])cc2Cl)c2ccccc12` (stereo unspecified) returned an IC50 of 5 µg/mL (≈ 9.77 µM).

For the next data set, the system named is Bacillus subtilis. Kind of data set: Antibacterial activity against Bacillus subtilis MTCC 2063 after 24 hrs by tube dilution method.
Conditions: not given
In kind it is functional.
`CCOC(=O)C1=C(C)NC(=O)NC1c1cn(C(=O)CNc2ccc([N+](=O)[O-])cc2Cl)c2ccccc12` (stereo unspecified): the “-logMIC” value was determined as 1.61.

`CCOC(=O)C1=C(C)NC(=O)NC1c1cn(C(=O)CNc2cccc([N+](=O)[O-])c2)c2ccccc12` (stereo unspecified): the “-logMIC” value came out at 1.58.

For `CCOC(=O)C1=C(C)NC(=O)NC1c1cn(C(=O)CNc2ccc([N+](=O)[O-])cc2)c2ccccc12` (stereo unspecified), the “-logMIC” value was 1.58.

In the next data set the test system is Staphylococcus aureus. Kind of data set: Antibacterial activity against Staphylococcus aureus MTCC 2901 after 24 hrs by tube dilution method. In kind it is functional.
Conditions: not given
As to `CCOC(=O)C1=C(C)NC(=O)NC1c1cn(C(=O)CNc2ccc([N+](=O)[O-])cc2Cl)c2ccccc12` (stereo unspecified), the “-logMIC” value was found to be 1.61.

For the compound `CCOC(=O)C1=C(C)NC(=O)NC1c1cn(C(=O)CNc2cccc([N+](=O)[O-])c2)c2ccccc12` (stereo unspecified), the “-logMIC” value was 1.88.

Regarding `CCOC(=O)C1=C(C)NC(=O)NC1c1cn(C(=O)CNc2ccc([N+](=O)[O-])cc2)c2ccccc12` (stereo unspecified), the “-logMIC” value came to 1.88.

For a further data set, the system named is Candida albicans. The data set can be described thus: Antifungal activity against Candida albicans MTCC 227 after 48 hrs by tube dilution method hrs followed by subculturing. In kind it is functional.
Conditions: not given
Regarding `CCOC(=O)C1=C(C)NC(=O)NC1c1cn(C(=O)CNc2ccc([N+](=O)[O-])cc2Cl)c2ccccc12` (stereo unspecified), the MFC is reported as above 0.1 uM/ml.

The compound `CCOC(=O)C1=C(C)NC(=O)NC1c1cn(C(=O)CNc2cccc([N+](=O)[O-])c2)c2ccccc12` (stereo unspecified) had an MFC above 0.1 uM/ml.

`CCOC(=O)C1=C(C)NC(=O)NC1c1cn(C(=O)CNc2ccc([N+](=O)[O-])cc2)c2ccccc12` (stereo unspecified) had an MFC above 0.1 uM/ml.

A further data set has as its system Aspergillus niger. Kind of data set: Antifungal activity against Aspergillus niger MTCC 8189 after 7 days by tube dilution method hrs followed by subculturing. In kind it is functional.
Conditions: not given
Regarding `CCOC(=O)C1=C(C)NC(=O)NC1c1cn(C(=O)CNc2ccc([N+](=O)[O-])cc2Cl)c2ccccc12` (stereo unspecified), the MFC is on record as above 0.1 uM/ml.

For `CCOC(=O)C1=C(C)NC(=O)NC1c1cn(C(=O)CNc2cccc([N+](=O)[O-])c2)c2ccccc12` (stereo unspecified), the MFC was above 0.1 uM/ml.

Regarding `CCOC(=O)C1=C(C)NC(=O)NC1c1cn(C(=O)CNc2ccc([N+](=O)[O-])cc2)c2ccccc12` (stereo unspecified), the MFC is given as above 0.1 uM/ml.
